Test results reported in publication PMC8799644, “Decisive role of water and protein dynamics in residence time of p38α MAP kinase inhibitors” (Nature Communications, 2022).
“And” between values parts separate entries of the source, which are not always exact repeats. Equal values may be shown once. Read-outs that look alike come from different tables or passages of the source.

Legend:
p38α MAPK [1] = molecular target: T1, p38α MAPK (Homo sapiens, UniProt Q16539); experiment: Cell-based eGFP-MK2 translocation assay, DLD1_eGFP-MK2 cells; parameters: endogenous in cells
Text: (§1) For optical analysis, cells were fixed using 4% PFA/PBS following DAPI staining and subjected to automated high content analysis (HCA) image acquisition using an Image Xpress micro XL microscope (Molecular Devices). 40× Plan Apo objective was used to acquire FITC and DAPI signals at nine sites per well. MetaXpress® Custom Module Editor Software (64 bit, 6.2.3.733, Molecular Devices) was trained for automated image analysis. DAPI signal was used to define nuclear region of interest (ROI) and DAPI-negative cytoplasmic ring for respective cytoplasmic ROI. Non-cellular FITC background signals were subtracted from defined ROIs. Nuclear to cytoplasmic ratios were calculated from cellular fluorescence intensities of eGFP-MK2 reporter within defined ROIs. Cells with ratios within the 10–90 percentiles of all measured cells were taken into account.
Supplementary Figure 1. Cell-based eGFP-MK2 translocation assay: DLD1 cell line.
(A) Schematic overview of the cell-based eGFP-MK2 translocation assay. Active p38a MAPK phosphorylates its nuclear substrate MapKap2 (MK2) which leads to the exposure of the nuclear export signal and results in a cytoplasmic relocalization of MK2. Using a fluorescently labelled eGFP-MK2 as reporter, nuclear-cytoplasmic translocation can be used to monitor p38a MAPK […]
(B) Human DLD1 cell line stably […]
expressing eGFP-MK2 reporter under different treatment conditions.
(1 picture or pasted object on this page, not shown here)
Shown are microscopic images which were subjected to automated high content analysis to measure and calculate nuclear to cytoplasmic ratios of eGFP-MK2 signals providing the basis to evaluate inhibitory potency of p38a MAPK modulating […]
3 independent biological replicates. Scale bar: 50 µm. (C) Inhibition of eGFP-MK2 translocation by the compounds in DLD1_eGFP-MK2 cells. Normalized fluorescence (Fl) intensity ratio of […]
respectively. […] Data are presented as mean ± standard deviation (SD) of three biological replicates. Source data are provided as a Source Data […]
(§2) Supplementary Figure 2. Cell-based eGFP-MK2 translocation assay: HCT116 cell line.
(A) Human HCT116 cell line stably expressing eGFP-MK2 reporter under different treatment

p38α MAPK [2] = molecular target: T1, p38α MAPK; experiment: Cell-based eGFP-MK2 translocation assay, HCT116_eGFP-MK2 cells; parameters: endogenous in cells
Text: as §1, with “account. […]” for “account.”
as §2
(A) Human HCT116 cell line stably expressing eGFP-MK2 reporter under different treatment […]
nucleus. Upon activation of the MAPK/p38 pathway, eGFP-MK2 is translocated to the cytoplasm […]
microscopic images which were subjected to automated high content analysis to measure and calculate nuclear to cytoplasmic ratios of eGFP-MK2 signals providing the basis to evaluate inhibitory potency of p38a MAPK modulating compounds. […]
sites that were imaged per condition for each of 3 independent biological replicates. Scale bar:
Normalized fluorescence (Fl) intensity ratio of nucleus/cytoplasm.
Data are presented as mean ± SD of three biological replicates. […]

p38α MAPK [3] = molecular target: T1, p38α MAPK; settings: n = 2; cited from earlier work
p38α MAPK [4] = molecular target: T1, p38α MAPK; experiment: HotSpot radiometric kinase assay (Reaction Biology); type: biochemical; settings: n = 1; 10 μM ATP; read-out: IC50 isolated enzyme p38α MAPK HotSpot
Experimental: Hotspot^TM radiometric assay[49] was conducted by Reaction Biology (Reaction Biology Corp., Malvern, PA, USA). In brief, five-dose singleton measurements were conducted starting from 1 μM compound concentration with a ten-fold serial dilution (lowest concentration of 0.1 nM). ATP concentration of 10 μM was used in the assay.

p38α MAP kinase = p38α MAP kinase (Homo sapiens, UniProt Q16539); experiment: ADP-Glo luminescence kinase assay (isolated enzyme); type: biochemical
Experimental: IC50 determinations were performed using the luminescence-based ADP-Glo^TM assay by Promega, which measures kinase activity based on ADP formation. All required reagents were prepared according to manufacturer’s protocol. […] The kinase reaction was started by adding the substrate and ATP. After 60 min incubation time, the reaction was terminated by adding ADP-Glo^TM reagent and an incubation time of 60 min. At last, ADP-Glo TM kinase detection reagent was added and incubated for 30 min. All reactions were carried out on a plate shaker at room temperature. […] The ratio between kinase reaction, ADP-Glo TM reagent and ADP-Glo TM kinase detection reagent was 1:1:2. The positive control consisted of p38α MAP kinase, substrate and buffer. The assay was performed in triplicates. The negative control consisted of all kinase reaction components without enzyme. Luminescence was detected using the plate reader FilterMax F5 by Molecular Devices with subsequent data analysis using GraphPad Prism version 7.0.0. for Windows (GraphPad Software, San Diego, CA, USA).

p38α MAPK [5] = molecular target: T1, p38α MAPK; settings: cited from earlier work
p38α MAPK [6] = molecular target: T1, p38α MAPK; experiment: Fluorescence polarization (Transcreener ADP) jump-dilution target residence time; type: biochemical; settings: for millipolarization mP: Compound 1 run, replicas 1-3

T1 sequence (Q16539 whole entry): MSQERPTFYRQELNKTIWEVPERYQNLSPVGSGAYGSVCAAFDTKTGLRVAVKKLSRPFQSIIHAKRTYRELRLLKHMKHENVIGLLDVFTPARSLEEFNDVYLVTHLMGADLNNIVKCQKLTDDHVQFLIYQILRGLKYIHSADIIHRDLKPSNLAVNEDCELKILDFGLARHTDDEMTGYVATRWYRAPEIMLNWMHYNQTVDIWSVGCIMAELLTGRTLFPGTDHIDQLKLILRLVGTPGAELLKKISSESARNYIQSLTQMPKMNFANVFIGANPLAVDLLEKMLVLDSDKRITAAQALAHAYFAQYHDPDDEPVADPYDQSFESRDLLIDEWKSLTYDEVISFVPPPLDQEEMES
p38α MAP kinase, sequence (Q16539 whole entry): as above

With `O=C(NCCN1CCOCC1)c1ccc2c(c1)C(=O)c1ccc(Nc3ccc(F)cc3F)cc1CC2` [Compound 1] the “norm. FI (nucleus/ cytoplasm)” value (p38α MAPK [1]; DLD1_eGFP-MK2, conc. 100 pM) was 0.794, the “norm. FI (nucleus/ cytoplasm)” value (p38α MAPK [1]; DLD1_eGFP-MK2, conc. 1e-9 M) was 0.8106 and the “norm. FI (nucleus/ cytoplasm)” value (p38α MAPK [1]; DLD1_eGFP-MK2, conc. 3e-9 M) was 0.8345. The “norm. FI (nucleus/ cytoplasm)” value (p38α MAPK [1]; DLD1_eGFP-MK2, conc. 3e-8 M) was 0.9192, the “norm. FI (nucleus/ cytoplasm)” value (p38α MAPK [1]; DLD1_eGFP-MK2, conc. 1e-7 M) was 0.9569 and the “norm. FI (nucleus/ cytoplasm)” value (p38α MAPK [1]; DLD1_eGFP-MK2, conc. 1e-6 M) was 1.002. For the same compound, the “norm. FI (nucleus/ cytoplasm)” value (p38α MAPK [1]; DLD1_eGFP-MK2, conc. 1e-5 M) was 1.014, the “norm. FI (nucleus/ cytoplasm)” value (p38α MAPK [1]; DLD1_eGFP-MK2, conc. 1e-5 M (last column, after 1e-10)) was 0.8162 and the IC50 (p38α MAPK [1]; DLD1_eGFP-MK2 cells, 1 h compound, n = 3, read-out: IC50 cell-based MK2 translocation DLD1) was 25.6 nM. The “norm. FI (nucleus/ cytoplasm)” value (p38α MAPK [2]; HCT116_eGFP-MK2, conc. 100 pM) was 0.8572, the “norm. FI (nucleus/ cytoplasm)” value (p38α MAPK [2]; HCT116_eGFP-MK2, conc. 1e-9 M) was 0.8754 and the “norm. FI (nucleus/ cytoplasm)” value (p38α MAPK [2]; HCT116_eGFP-MK2, conc. 3e-9 M) was 0.8746. The “norm. FI (nucleus/ cytoplasm)” value (p38α MAPK [2]; HCT116_eGFP-MK2, conc. 1e-8 M) was 0.937, the “norm. FI (nucleus/ cytoplasm)” value (p38α MAPK [2]; HCT116_eGFP-MK2, conc. 3e-8 M) was 0.9809 and the “norm. FI (nucleus/ cytoplasm)” value (p38α MAPK [2]; HCT116_eGFP-MK2, conc. 1e-7 M) was 1.0322. For the same compound, the “norm. FI (nucleus/ cytoplasm)” value (p38α MAPK [2]; HCT116_eGFP-MK2, conc. 1e-6 M) was 1.03, the “norm. FI (nucleus/ cytoplasm)” value (p38α MAPK [2]; HCT116_eGFP-MK2, conc. 1e-5 M) was 1.052 and the “norm. FI (nucleus/ cytoplasm)” value (p38α MAPK [2]; HCT116_eGFP-MK2, conc. 1e-5 M (last column, after 1e-10)) was 0.8753. The IC50 (p38α MAPK [2]; HCT116_eGFP-MK2 cells, 1 h compound, n = 3, read-out: IC50 cell-based MK2 translocation HCT116) was 14.9 nM, the “Target residence time SPR” value (p38α MAPK [3]) was 36 s and the IC50 (p38α MAPK [4]) was less than 1 nM. For the same compound, the IC50 (p38α MAP kinase; mean ± SD, 150 μM ATP, read-out: IC50 isolated enzyme p38α MAPK ADP-Glo (mean)) was 31.3 nM and 31 nM, the IC50 (p38α MAP kinase; single experiments of source data, read-out: IC50 ADP Glo, individual determination) was 35 nM and 40 nM and 19 nM and the IC50 (p38α MAPK [5]; mean ± SD, n = 3, read-out: IC50 isolated enzyme p38α MAPK ELISA (mean)) was 3.4 nM and 3.35 nM. For the same compound, the IC50 (p38α MAPK [5]; single experiments of source data, read-out: IC50 ELISA, individual determination) was 3.54 nM and 3.5 nM, the “millipolarization mP” value (p38α MAPK [6]; Time 15 min) was 250.23 mP and 238.61 mP and 252.02 mP and the “millipolarization mP” value (p38α MAPK [6]; Time 20 min) was 235.80 mP and 229.96 mP and 227.02 mP. The “millipolarization mP” value (p38α MAPK [6]; Time 25 min) was 216.96 mP and 215.61 mP and 220.53 mP, the “millipolarization mP” value (p38α MAPK [6]; Time 30 min) was 204.83 mP and 208.80 mP and 213.25 mP and the “millipolarization mP” value (p38α MAPK [6]; Time 35 min) was 199.40 mP and 197.40 mP and 204.19 mP. The “millipolarization mP” value (p38α MAPK [6]; Time 40 min) was 190.24 mP and 185.07 mP and 187.77 mP, the “millipolarization mP” value (p38α MAPK [6]; Time 45 min) was 188.70 mP and 189.13 mP and 187.22 mP and the “millipolarization mP” value (p38α MAPK [6]; Time 50 min) was 189.84 mP and 186.39 mP and 191.23 mP. The “millipolarization mP” value (p38α MAPK [6]; Time 55 min) was 181.96 mP and 176.31 mP and 180.38 mP, the “millipolarization mP” value (p38α MAPK [6]; Time 60 min) was 189.85 mP and 181.69 mP and 188.39 mP and the “millipolarization mP” value (p38α MAPK [6]; Time 65 min) was 179.72 mP and 178.04 mP and 185.39 mP. The “millipolarization mP” value (p38α MAPK [6]; Time 70 min) was 177.53 mP and 176.90 mP and 187.97 mP, the “millipolarization mP” value (p38α MAPK [6]; Time 75 min) was 176.40 mP and 178.56 mP and 178.94 mP and the “millipolarization mP” value (p38α MAPK [6]; Time 80 min) was 170.47 mP and 176.86 mP and 179.41 mP. The “millipolarization mP” value (p38α MAPK [6]; Time 85 min) was 174.74 mP and 171.47 mP and 178.98 mP, the “millipolarization mP” value (p38α MAPK [6]; Time 90 min) was 181.04 mP and 173.23 mP and 180.81 mP and the “millipolarization mP” value (p38α MAPK [6]; Time 95 min) was 176.14 mP and 169.30 mP and 175.95 mP. The “millipolarization mP” value (p38α MAPK [6]; Time 100 min) was 170.48 mP and 168.26 mP and 169.78 mP, the “millipolarization mP” value (p38α MAPK [6]; Time 105 min) was 171.74 mP and 175.00 mP and 171.83 mP and the “millipolarization mP” value (p38α MAPK [6]; Time 110 min) was 170.01 mP and 167.74 mP and 170.08 mP. For the same compound, the “millipolarization mP” value (p38α MAPK [6]; Time 115 min) was 166.92 mP and 166.97 mP and 168.10 mP, the “millipolarization mP” value (p38α MAPK [6]; Time 120 min) was 173.62 mP and 170.72 mP and 174.62 mP and the “millipolarization mP” value (p38α MAPK [6]; Time 125 min) was 170.41 mP and 162.47 mP and 172.42 mP. For the same compound, the “millipolarization mP” value (p38α MAPK [6]; Time 130 min) was 163.64 mP and 172.89 mP and 166.09 mP, the “millipolarization mP” value (p38α MAPK [6]; Time 135 min) was 165.07 mP and 173.17 mP and 167.48 mP and the “millipolarization mP” value (p38α MAPK [6]; Time 140 min) was 163.17 mP and 162.11 mP and 161.18 mP. The “millipolarization mP” value (p38α MAPK [6]; Time 145 min) was 163.48 mP and 161.58 mP and 158.43 mP, the “millipolarization mP” value (p38α MAPK [6]; Time 150 min) was 162.36 mP and 163.56 mP and 167.43 mP and the “millipolarization mP” value (p38α MAPK [6]; Time 155 min) was 167.52 mP and 168.31 mP and 165.22 mP. For the same compound, the “millipolarization mP” value (p38α MAPK [6]; Time 160 min) was 157.97 mP and 163.71 mP and 167.13 mP, the “millipolarization mP” value (p38α MAPK [6]; Time 170 min) was 171.90 mP and 157.15 mP and 163.48 mP and the “millipolarization mP” value (p38α MAPK [6]; Time 175 min) was 163.57 mP and 163.80 mP and 163.61 mP. The “millipolarization mP” value (p38α MAPK [6]; Time 180 min) was 166.27 mP, the “TRT” value (p38α MAPK [6]; individual replicas 1-3) was 317 s and 109 s and 270 s and the “TRT [sec] mean” value (p38α MAPK [6]; mean of 3 replicas) was 232 s. The residence time (p38α MAPK [6]; mean ± SD, n = 3, 1/koff, jump dilution 1:100, 40 μM ATP, ATF2, read-out: Target residence time FP (converted)) was 3.87 min.
